Measured values from patent US11058702B2 (EMEK, Inc., priority 2014, dated 2021).

Experiments:
[1] = system: locally advanced rectal cancer; details: cited from earlier work
[2] = molecular target: T1, human liver IPdR-aldehyde oxidase (Homo sapiens, UniProt Q06278); details: low concentrations
T1 sequence (Q06278 1-1338): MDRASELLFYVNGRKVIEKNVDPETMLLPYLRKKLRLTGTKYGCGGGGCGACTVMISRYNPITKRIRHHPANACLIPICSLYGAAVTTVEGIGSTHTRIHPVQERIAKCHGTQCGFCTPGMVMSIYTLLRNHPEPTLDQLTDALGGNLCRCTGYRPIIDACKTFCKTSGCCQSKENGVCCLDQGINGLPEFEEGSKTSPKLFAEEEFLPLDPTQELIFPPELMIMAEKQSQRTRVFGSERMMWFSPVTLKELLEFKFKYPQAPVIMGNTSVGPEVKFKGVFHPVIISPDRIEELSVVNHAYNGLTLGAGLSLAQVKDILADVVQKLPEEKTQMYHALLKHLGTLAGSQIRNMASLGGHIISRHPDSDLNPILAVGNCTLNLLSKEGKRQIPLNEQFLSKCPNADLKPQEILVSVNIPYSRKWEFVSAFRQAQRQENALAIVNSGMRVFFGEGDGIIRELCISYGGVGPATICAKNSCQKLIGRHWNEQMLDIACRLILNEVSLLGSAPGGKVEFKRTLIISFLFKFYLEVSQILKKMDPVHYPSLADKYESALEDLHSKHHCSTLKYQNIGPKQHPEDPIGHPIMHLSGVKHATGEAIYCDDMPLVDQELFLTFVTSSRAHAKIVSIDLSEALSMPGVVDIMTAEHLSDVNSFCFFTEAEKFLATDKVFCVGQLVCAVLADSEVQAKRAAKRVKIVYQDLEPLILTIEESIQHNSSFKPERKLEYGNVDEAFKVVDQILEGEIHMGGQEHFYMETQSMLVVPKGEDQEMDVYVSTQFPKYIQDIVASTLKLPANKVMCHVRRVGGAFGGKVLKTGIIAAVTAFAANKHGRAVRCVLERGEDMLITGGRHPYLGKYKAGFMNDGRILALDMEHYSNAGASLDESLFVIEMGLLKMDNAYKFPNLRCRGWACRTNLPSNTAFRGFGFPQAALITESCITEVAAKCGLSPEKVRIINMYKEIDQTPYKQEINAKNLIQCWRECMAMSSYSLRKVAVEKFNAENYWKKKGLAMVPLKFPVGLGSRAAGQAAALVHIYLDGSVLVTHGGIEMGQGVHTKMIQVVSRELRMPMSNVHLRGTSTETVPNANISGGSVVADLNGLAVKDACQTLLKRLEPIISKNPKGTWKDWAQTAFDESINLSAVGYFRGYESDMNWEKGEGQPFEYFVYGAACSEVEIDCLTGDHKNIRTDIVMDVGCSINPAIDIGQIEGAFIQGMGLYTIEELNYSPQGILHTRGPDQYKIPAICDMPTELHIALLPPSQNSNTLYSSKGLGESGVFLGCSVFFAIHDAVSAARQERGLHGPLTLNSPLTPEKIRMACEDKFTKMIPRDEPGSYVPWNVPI

[3] = system: IPdR oxidase activity of human intestine cytosol
head & neck cancers = details: cis-platin+definitive RT, cCR achieved; cited from earlier work

Row | SMILES | effect on human liver IPdR-aldehyde oxidase [2] | effect on human small intestine IPdR oxidase activity [3] | also measured
1 | O=C1[O][Pt]2([NH][C@@H]3CCCC[C@H]3[NH]2)[O]C1=O [oxaliplatin] |  |  | effect on pCR rate when added during pre-operative RT+FP ([1]; with increased normal tissue complications): without any improvement in pCR rate
2 | Oc1ncnc2[nH]ncc12 [allopurinol] | not | not inhibited | 
3 | COc1ccc(C=O)cc1O [isovanillin] | inhibited | not inhibited | 
4 | N.N.[Cl][Pt][Cl] [cis-platin, cis-diamminedichloroplatinum II] |  |  | cure rate (head & neck cancers): approximately 60%
5 | CC1=CC(=O)c2ccccc2C1=O [menadione] |  | stimulated | 
6 | CCCCCOC(=O)Nc1nc(=O)n([C@@H]2O[C@H](C)[C@@H](O)[C@H]2O)cc1F [capecitabine] |  |  | pCR rate ([1]; neoadjuvant capecitabine+RT, Stage III rectal patients): 10-15%
